From US20230365632A1, “A GROUP OF PEPTIDE DERIVATIVE OMICSYNINS WITH ANTIVIRAL ACTIVITY AND USES THEREOF” (INSTITUTE OF MEDICINAL BIOTECHNOLOGY CHINESE ACADEMY OF …, priority 2020, published 2023) come the findings set out here.

Values after ≈ are worked out from the molar mass of the structure shown. Values joined by “and” are separate entries in the source; they are usually repeats but may differ in a detail not shown here. Equal values may be shown once. Read-outs that look alike come from different tables or passages of the source. *1 amine or outer side, *2 acyl side, *3 side chain or, on linkers, in order; H or OH if unused. Where a SMILES comes first, the peptide text is derived from it. [ ]: non-standard residue; d: D form. Phe(ol) = N[CH](CO)Cc1ccccc1; CO = O=C([*:1])[*:2]

For one data set, the system named is coronavirus HCoV-229E. Briefly: CPE inhibition assay against HCoV-229E in Huh7.5 cells. It is filed as cell-based.
The subject of data set [1] is influenza virus A/wuhan/359/95 (H3N2). Briefly: organism not typed. It is filed as cell-based.
Data set [2] in a line: in vitro. Particulars: dog.
Data set [3] in a line: in vitro. Particulars: human.
For data set [4], the system named is Madin-Darby canine kidney cells (MDCK).
For data set [5], the system named is influenza virus A/Fort Monmouth/1/47 (H1N1). The experiment in a line: organism not typed. It is filed as cell-based. The conditions noted are these: MDCK, read-out: A/Fort Monmouth/1/47(H1N1) IC50.
A further data set has as its system coronavirus HCoV-OC43. The experiment in a line: qRT-PCR of HCoV-OC43 N protein mRNA in C3A cells. It is filed as cell-based. Particulars: 24 hours, corrected for GAPDH, read-out: IC50 for inhibitory activity of coronavirus HCoV-OC43.
A further data set relates to Huh7.5 cells. The experiment in a line: 50% toxicity concentration (TC50) by CPE assay in Huh7.5 cells. Particulars: read-out: TC50, Table 10.
Setting [6] is: Human coronavirus 229E, Huh7.5, read-out: HCoV-229E IC50.
[7] abbreviates: MDCK, read-out: A/Wuhan/359/1995 (H3N2) IC50.

As to `CC(C)C[C@H](NC(=O)[C@@H](NC(=O)N[C@@H](Cc1ccccc1)C(=O)O)[C@@H]1CCN=C(N)N1)C(=O)N[C@H](C=O)Cc1ccccc1` [chymostatin, Chymostatin], the IC50 with coronavirus HCoV-229E (setting [6]) was 23.7 ± 5.66 µM; in data set [1] (setting [7]), 329 µM. Besides, the CC50 in “in vitro [2]” is > 329 µM; in the data set “in vitro [3]”, > 165 µM.

Consider `CC(C)[C@H](NC(=O)[C@H](CCCNC(=N)N)NC(=O)N[C@@H](Cc1ccccc1)C(=O)O)C(=O)N[C@H](C=O)CCCNC(=N)N` [antipain, Antipain] ({Phe-CO}-Arg-Val-Arg-aldehyde), for which the IC50 was 1.57 ± 0.46 µM in the data set with coronavirus HCoV-229E (setting [6]) and 3.16 ± 0.94 µM in data set [1] (MDCK, Table 9; CPE method; mean ± SD, three repeats; read-out: A/Wuhan/359/1995 (H3N2) IC50). Also, the CC50 in “in vitro [2]” is > 331 µM; in “in vitro [3]”, > 165 µM.

In turn, `CCOC(=O)C1=C[C@@H](OC(CC)CC)[C@H](NC(C)=O)[C@@H](N)C1` [Oseltamivir Phosphate] displayed a TC50 in data set [4] (Table 5, HP20 eluates and positive drugs) of 577.35 µg/mL. For the same compound, the IC50 in data set [1] (MDCK, Table 5; HP20 eluates and positive drugs; read-out: A/Wuhan/359/1995 (H3N2) IC50) was 2.01 µg/mL.

For `CCOC(=O)C1=C[C@@H](OC(CC)CC)[C@H](NC(C)=O)[C@@H](N)C1` [Oseltamivir], the TC50 in data set [4] (Table 1, positive drug) is 1260 µg/mL (≈ 4030 µM); in data set [4] (Table 2, positive drugs), 1260 µg/mL (≈ 4030 µM); in data set [4] (Table 3, positive drug), 577.4 µg/mL (≈ 1850 µM); in data set [4] (Table 4, positive drug), >1000 µg/mL; in data set [4] (Table 6, 50E-C18 components and positive drugs), 577.35 µg/mL (≈ 1850 µM). The IC50 is 1.63 µg/mL in data set [1] (MDCK, Table 1; positive drug; read-out: A/wuhan/359/95(H3N2) IC50); 2.01 µg/mL in data set [1] (MDCK, Table 3; positive drug; read-out: A/Wuhan/359/1995 (H3N2) IC50); 1.77 µg/mL in data set [1] (MDCK, Table 4; positive drug; read-out: A/Wuhan/359/1995 (H3N2) IC50); 1.63 µg/mL in data set [1] (MDCK; Table 2; positive drugs; read-out: A/wuhan/359/95(H3N2) IC50); 2.47 µg/mL in data set [1] (MDCK; read-out: A/Wuhan/359/1995 (H3N2) IC50); 2.01 µg/mL (≈ 6.43 µM) in data set [5] (Table 2, positive drugs).

With `CC(C)C(NC(=O)C(CCCNC(=N)N)NC(=O)NC(Cc1ccccc1)C(=O)O)C(=O)NC(CO)Cc1ccccc1` (stereo not drawn) [Omicsynin A3, Chymostatinol A] ({Phe-CO}-Arg-Val-[Phe(ol)]; configuration not given here), the IC50 was determined as 57.4 ± 15.6 µM in the data set on coronavirus HCoV-229E (setting [6]) and 87.9 ± 23.7 µM in data set [1] (setting [7]). Further, the CC50 in “in vitro [2]” is > 336 µM; in “in vitro [3]”, > 168 µM.

Consider `CC(C)[C@H](NC(=O)[C@H](CCCNC(=N)N)NC(=O)N[C@@H](Cc1ccccc1)C(=O)O)C(=O)N[C@H](C=O)CCCNC(=N)N` [Omicsynin B4, Antipain] ({Phe-CO}-Arg-Val-Arg-aldehyde), for which the IC50 stood at 0.89 ± 0.22 µM in the data set with coronavirus HCoV-229E (Table 10, Huh7.5 cells, 100 TCID50, read-out: HCoV-229E IC50); 28.7 µM in the data set on coronavirus HCoV-OC43; 2.43 ± 0.71 µM in data set [1] (Table 9; CPE method; mean ± SD, three repeats; read-out: A/Wuhan/359/1995 (H3N2) IC50). In addition, the CC50 in data set [4] (read-out: TC50, Table 9, CPE method) was > 331 µM; with Huh7.5 cells it was > 165 µM.

`NC(=O)c1ncn([C@@H]2O[C@H](CO)[C@@H](O)[C@H]2O)n1` [RBV, ribavirin]: the IC50 was 25.1 ± 6.1 µM with coronavirus HCoV-229E (setting [6]); 2.47 µg/mL and 13.2 µM in data set [1] (setting [7]); 1.63 µg/mL in data set [1] (MDCK, read-out: A/wuhan/359/95(H3N2) IC50); 0.82 µg/mL (≈ 3.36 µM) in data set [5]. Also, the CC50 in the data set “in vitro [2]” is > 819 µM; in “in vitro [3]” it was > 410 µM.
